This note sets out measurements from paper PMC4045134, “Discovery of Triterpenoids as Reversible Inhibitors of α/β-hydrolase Domain Containing 12 (ABHD12)” (PLoS ONE, 2014).

“Also recorded” adds a separate entry of the source. Where two headings read alike, the source gives them in different places. A value given as a limit tells only on which side of the number the result lay.

Common to all, as to type: biochemical
One test concerns the target T1, hABHD6 (Homo sapiens, UniProt Q9BV23).
T1 construct: expressed in transfected cells; host or cells: HEK293 (transient)
T1 sequence (Q9BV23 1-337): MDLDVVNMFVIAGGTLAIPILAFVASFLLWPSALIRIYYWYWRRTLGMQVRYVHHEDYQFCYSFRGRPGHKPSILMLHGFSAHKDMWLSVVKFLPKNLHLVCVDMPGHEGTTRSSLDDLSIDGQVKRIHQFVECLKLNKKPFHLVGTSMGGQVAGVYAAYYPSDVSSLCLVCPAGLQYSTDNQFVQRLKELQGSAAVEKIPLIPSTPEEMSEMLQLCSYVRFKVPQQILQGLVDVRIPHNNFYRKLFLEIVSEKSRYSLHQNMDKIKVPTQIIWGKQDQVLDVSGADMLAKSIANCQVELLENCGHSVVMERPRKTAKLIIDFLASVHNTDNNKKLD
In words: Fluorescent glycerol assay in hABHD6-HEK293 lysates. Particulars: 10 µM; NI = no inhibition at 10 µM; read-out: hABHD6 Remaining activity % control ± s.e.m (n=3). As for the experimental part:
(§1) Glycerol liberated from 1-AG hydrolysis was determined with a sensitive fluorescent assay using lysates of HEK293 cells with transient overexpression of hABHD12, hABHD6 or hMAGL, essentially as previously described. […] Fluorescence (λex 530; λem 590 nm) was monitored using a Tecan Infinite M200 plate reader (Tecan Group Ltd., Männedorf, Switzerland). Inhibitory activities of selected compounds towards FAAH were determined using membranes of hFAAH overexpressing COS-7 cells, essentially as previously described. The final incubation volume (100 µL) contained 1 µg of protein and the substrate concentration was 20 µM (10 nM of ^3H-anandamide having specific activity of 60 Ci/mmol and concentration of 1 mCi/mL).

The target in a further test is T2, hABHD12 (Homo sapiens, UniProt Q8N2K0).
T2 construct: expressed in transfected cells; host or cells: HEK293 (transient)
T2 sequence (Q8N2K0 1-398): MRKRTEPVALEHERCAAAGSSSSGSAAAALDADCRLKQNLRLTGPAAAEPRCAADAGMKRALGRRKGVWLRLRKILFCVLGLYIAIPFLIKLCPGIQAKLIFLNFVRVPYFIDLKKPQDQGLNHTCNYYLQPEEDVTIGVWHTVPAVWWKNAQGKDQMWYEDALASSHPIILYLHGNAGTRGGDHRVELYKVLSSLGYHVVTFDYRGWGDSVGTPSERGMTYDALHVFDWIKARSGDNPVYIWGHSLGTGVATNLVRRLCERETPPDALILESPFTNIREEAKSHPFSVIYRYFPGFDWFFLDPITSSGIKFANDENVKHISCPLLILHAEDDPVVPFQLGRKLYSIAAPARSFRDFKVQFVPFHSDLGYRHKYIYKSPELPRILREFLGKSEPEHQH
In words: Fluorescent glycerol assay of 1-AG hydrolysis in hABHD12-HEK293 lysates. Particulars: for IC50 / Emax / remaining activity at 10 µM: hABHD12-HEK293 lysates; for Emax: read-out: max inhibition (converted); for remaining activity at 10 µM: NI = no inhibition, read-out: Remaining activity at 10 µM % ± s.e.m. As for the experimental part:
as §1

The target of another test is T3, hMAGL (Homo sapiens, UniProt Q99685).
T3 construct: expressed in transfected cells; host or cells: HEK293 (transient)
T3 sequence (Q99685 1-303): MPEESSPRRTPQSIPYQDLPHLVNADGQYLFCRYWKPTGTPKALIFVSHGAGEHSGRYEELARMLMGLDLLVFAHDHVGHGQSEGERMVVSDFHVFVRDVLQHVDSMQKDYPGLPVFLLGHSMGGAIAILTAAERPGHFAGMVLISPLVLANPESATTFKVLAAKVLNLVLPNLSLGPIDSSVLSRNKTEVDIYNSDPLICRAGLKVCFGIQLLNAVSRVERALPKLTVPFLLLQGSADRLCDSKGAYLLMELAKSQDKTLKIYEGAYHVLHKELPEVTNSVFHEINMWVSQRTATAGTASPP
In words: Fluorescent glycerol assay in hMAGL-HEK293 lysates. Particulars: for remaining activity at 10 µM: read-out: hMAGL Remaining activity % control ± s.e.m (n=3). As for the experimental part: as §1

The target in the next test is T4, hFAAH (Homo sapiens, UniProt O00519).
T4 construct: expressed in transfected cells; host or cells: COS-7
T4 sequence (O00519 1-579): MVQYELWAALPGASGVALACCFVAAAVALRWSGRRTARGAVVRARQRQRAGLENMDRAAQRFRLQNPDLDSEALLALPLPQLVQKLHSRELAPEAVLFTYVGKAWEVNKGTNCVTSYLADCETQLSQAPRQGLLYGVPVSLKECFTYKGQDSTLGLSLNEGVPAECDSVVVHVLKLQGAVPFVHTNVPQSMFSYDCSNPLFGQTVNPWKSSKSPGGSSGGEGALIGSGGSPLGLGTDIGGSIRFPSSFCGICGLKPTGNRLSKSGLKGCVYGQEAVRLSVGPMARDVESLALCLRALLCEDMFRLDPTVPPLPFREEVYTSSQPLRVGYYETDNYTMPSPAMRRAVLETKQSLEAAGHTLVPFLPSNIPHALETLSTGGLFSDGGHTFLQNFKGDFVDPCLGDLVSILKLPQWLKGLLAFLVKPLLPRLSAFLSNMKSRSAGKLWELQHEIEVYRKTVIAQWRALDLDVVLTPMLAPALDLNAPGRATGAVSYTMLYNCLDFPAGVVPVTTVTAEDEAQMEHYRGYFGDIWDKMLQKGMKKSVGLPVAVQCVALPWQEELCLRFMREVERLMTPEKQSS
Description: FAAH activity, membranes of hFAAH overexpressing COS-7 cells, 3H-anandamide. The settings on record: read-out: hFAAH Remaining activity % control (mean (range)), n=2. As for the experimental part:
as §1

Another test deals with T5, hCB2R (Homo sapiens, UniProt P34972).
T5 construct: expressed in transfected cells; host or cells: CHO
T5 sequence (P34972 whole entry): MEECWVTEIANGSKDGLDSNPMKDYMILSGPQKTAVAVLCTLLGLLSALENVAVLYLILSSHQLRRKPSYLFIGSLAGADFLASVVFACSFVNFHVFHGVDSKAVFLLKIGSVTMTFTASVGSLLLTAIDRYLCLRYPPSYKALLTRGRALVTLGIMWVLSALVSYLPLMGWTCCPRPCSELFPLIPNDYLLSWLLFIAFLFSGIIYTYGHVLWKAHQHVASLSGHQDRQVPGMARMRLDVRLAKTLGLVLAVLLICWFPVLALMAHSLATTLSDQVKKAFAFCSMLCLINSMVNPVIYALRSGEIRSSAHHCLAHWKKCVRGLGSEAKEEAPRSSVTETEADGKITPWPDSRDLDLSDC
Description: [35S]GTPγS binding, CB2R agonist activity, hCB2R-CHO cell membranes. The settings on record: 1 µM.

[1] abbreviates: three independent experiments, read-out: -logIC50±s.e.m. (converted).

Take `C=C(C)[C@@H]1CC[C@]2(C=O)CC[C@]3(C)[C@H](CC[C@@H]4[C@@]5(C)CCC(=O)C(C)(C)[C@@H]5CC[C@]43C)[C@@H]12` [Compound 17]: the remaining activity at 10 µM was found to be 93.6 ± 3.8% on hABHD6, 84.1 ± 4.8% at hMAGL and 95% on hFAAH. The IC50 on hABHD12 (setting [1]) was 4.47 µM; at hABHD12 (read-out: IC50), 4.4 µM. The Emax at hABHD12 was 57%.
`C=C(C)[C@@H]1CC[C@]2(C=NO)CC[C@]3(C)[C@H](CC[C@@H]4[C@@]5(C)CC[C@H](O)C(C)(C)[C@@H]5CC[C@]43C)[C@@H]12` [Compound 24]: the remaining activity at 10 µM was 92.4 ± 3.9% at hABHD6, 86 ± 4.3% at hMAGL and 95% on hFAAH. In addition, at hABHD12 (read-out: IC50), the IC50 stood at 6.5 µM. The Emax at hABHD12 was 61%.
Take `C=C(C)[C@@H]1CC[C@]2(COC(=O)CCC(C)=O)CC[C@]3(C)[C@H](CC[C@@H]4[C@@]5(C)CC[C@H](OC(=O)CCC(C)=O)C(C)(C)[C@@H]5CC[C@]43C)[C@@H]12` [Compound 28]: at hABHD12, the remaining activity at 10 µM was more than 100%.
On the same count and under the same terms, the result for `C=C(C)[C@@H]1CC[C@]2(COC3CCCCO3)CC[C@]3(C)[C@H](CC[C@@H]4[C@@]5(C)CC[C@H](O)C(C)(C)[C@@H]5CC[C@]43C)[C@@H]12` (stereo partly drawn) [Compound 29] reads more than 100%; that for `C=C(C)[C@@H]1CC[C@]2(CO)CC[C@]3(C)[C@H](CC[C@@H]4[C@@]5(C)CC[C@H](OC(C)=O)C(C)(C)[C@@H]5CC[C@]43C)[C@@H]12` [Compound 30], more than 100%.
As to `C=C(C)[C@@H]1CC[C@]2(C(=O)O)CC[C@]3(C)[C@H](CC[C@@H]4[C@@]5(C)CC6OC(C)(C)OC6C(C)(C)[C@@H]5CC[C@]43C)[C@@H]12` (stereo partly drawn) [Compound 31], the remaining activity at 10 µM was 93.2 ± 3% on hABHD6, 82.7 ± 4.1% at hMAGL and 91% at hFAAH. Besides, the IC50 was 7.41 µM at hABHD12 (setting [1]) and 7.5 µM on hABHD12 (read-out: IC50). Moreover, the Emax at hABHD12 was 90%.
Turning to `C=C(C)[C@@H]1CC[C@]2(C(=O)O)CC[C@]3(C)[C@H](CC[C@@H]4[C@@]5(C)CC(O)C(O)C(C)(C)[C@@H]5CC[C@]43C)[C@@H]12` (stereo partly drawn) [Compound 32, 2β,3β-Dihydroxylup-20(29)-en-28-oic acid], the IC50 on hABHD12 (setting [1]) is 3.72 µM. Further, on hABHD12, the Emax is 100%.
With `CC1(C)CC[C@]23CC[C@]4(C)C(CC[C@@H]5[C@@]6(C)Cc7c([nH]c8ccc(F)cc78)C(C)(C)[C@@H]6CC[C@]54C)[C@H]2[C@H]1OC3` (stereo partly drawn) [Compound 35], at hABHD12, the “hABHD12 inhibitory activity (in words)” value is listed as “total loss of the inhibitory activity” and the remaining activity at 10 µM was more than 100%. Further, the inhibition at 10 µM at hMAGL (read-out: inhibition of MAGL at 10 µM) was approximately 50%.
On to `C=C(C)[C@@H]1CC[C@]2(C(=O)O)CC[C@]3(C)[C@H](CC[C@@H]4[C@@]5(C)CCC(=O)NC(C)(C)[C@@H]5CC[C@]43C)[C@@H]12` [Compound 36], for which the figures for the remaining activity at 10 µM at hABHD6, at hMAGL and on hFAAH were 80 ± 4.4%, 54.1 ± 4.7% and 88%, respectively. Further, the IC50 on hABHD12 (read-out: IC50) stood at 9.1 µM. In addition, the Emax on hABHD12 was 88%.
In the case of `C=C(C)[C@@H]1CC[C@]2(C(=O)O)CC[C@]3(C)[C@H](CC[C@@H]4[C@@]5(C)Cc6c[nH]nc6C(C)(C)[C@@H]5CC[C@]43C)[C@@H]12` [Compound 37], on hABHD12 (setting [1]), the IC50 is 1.45 µM. Further, the Emax on hABHD12 is 100%.
For `C=C(C)[C@@H]1CC[C@]2(C=O)CC[C@]3(C)[C@H](CC[C@@H]4[C@@]5(C)Cc6cnoc6C(C)(C)[C@@H]5CC[C@]43C)[C@@H]12` [Compound 38], on hABHD12, the “hABHD12 inhibitory activity (in words)” value was “poor inhibitory activity; also recorded: complete loss of the inhibitory activity” and the remaining activity at 10 µM is 84 ± 1.6%.
Regarding `CC(C)[C@@]12CC[C@]3(CO)CC[C@]4(C)C(=C31)C(C[C@@H]1[C@@]3(C)CC[C@H](O)C(C)(C)[C@@H]3CC[C@]14C)n1c(=O)n(-c3ccccc3)c(=O)n12` (stereo partly drawn) [Compound 39], the remaining activity at 10 µM at hABHD12 is 86 ± 0.4%.
As to `C=C(C)[C@@H]1CC[C@]2(C(=O)O)CC[C@]3(C)[C@H](CC[C@@H]4[C@@]5(C)Cc6ncccc6C(C)(C)[C@@H]5CC[C@]43C)[C@@H]12` [Compound 40, Lupa-2,20(29)-dieno[2,3-b]pyridin-28-oic acid], the remaining activity at 10 µM on hABHD12 amounted to 66 ± 1.1%. Besides, the inhibition at 10 µM at hABHD12 (read-out: inhibition of hABHD12 at 10 µM) came out at 34%.
On to `C=C(C)[C@@H]1CC[C@]2(C(=O)O)CC[C@]3(C)[C@H](CC[C@@H]4[C@@]5(C)Cc6cccnc6C(C)(C)[C@@H]5CC[C@]43C)[C@@H]12` [Compound 41], for which the IC50 is 6.61 µM on hABHD12 (setting [1]) and 6.7 µM on hABHD12 (read-out: IC50). Also, the Emax at hABHD12 was 80%.
On to `C=C(C)[C@@H]1CC[C@]2(C(=O)O)CC[C@]3(C)[C@H](CC[C@@H]4[C@@]5(C)Cc6nccnc6C(C)(C)[C@@H]5CC[C@]43C)[C@@H]12` [Compound 42], for which the IC50 is 3.55 µM at hABHD12 (setting [1]) and 3.6 µM on hABHD12 (read-out: IC50). Also, the Emax on hABHD12 was 56%.
Turning to `C=C(C)[C@@H]1CC[C@]2(C(N)=O)CC[C@]3(C)[C@H](CC[C@@H]4[C@@]5(C)Cc6nccnc6C(C)(C)[C@@H]5CC[C@]43C)[C@@H]12` [Compound 43], on hABHD12, the remaining activity at 10 µM turned out to be 69 ± 0.8%.
SR144528: on hCB2R, the “CB2R agonist activity [35S]GTPγS binding % Basal (Mean (range), n=2)” value is on record as 68 (60-76) % Basal.

One may read the remaining activity as the activity still measured, relative to the control. Broadly, the inhibition is the drop in the measured response relative to a control, in per cent.
